This is an account of results in paper PMC6332200, “Isolation and Identification of Cytotoxic Compounds from Aeschynomene fascicularis, a Mayan Medicinal Plant” (Molecules, 2015).

Where “and” joins values, the source holds several entries; their conditions need not be identical. Identical values can stand only once.

Data set [1] deals with Hep-2. The experiment in a line: Cytotoxicity MTT assay, Hep-2 laryngeal carcinoma. The class given is cell-based, human. Conditions: Homo sapiens; Hep-2, MTT, 72 h; read-out: Cytotoxic activity CC50. Here is the method: (§1) Three types of cancer cell lines obtained from the American Type Culture Collection (ATCC) were cultured: two oral-laryngeal cancer cell lines, nasopharynx carcinoma (KB, ATCC-CCL-17) and laryngeal carcinoma (Hep-2, ATCC-CCL-23); two cervix-uterine cancer cell lines, cervix adenocarcinoma (HeLa, ATCC-CCL-2) and cervix squamous carcinoma (SiHa, ATCC-HTB-35); and two prostate cancer cell lines, prostate carcinoma (DU-145, ATCC-HTB-81) and prostate adenocarcinoma (PC-3, ATCC-CRL-1435); along with one normal cell line (MDCK, ATCC-CCL-34). The cells were cultured in sterile Costar T75 flasks containing DMEM (Gibco, Hong Kong, China), supplemented with fetal bovine serum (10%, v/v), 100 U/mL penicillin G, and […] streptomycin at 37 °C in an atmosphere of 5% CO2 (95% humidity). At 70%–80% confluence, cells were detached from the cultured flask by treatment with 0.05% trypsin-EDTA (Gibco), and a suspension of 5 × 10^4 cells/mL of viable cells was seeded in a 96-well microtiter plate (Costar, Washington, DC, USA) and incubated. Cytotoxicity was assessed by the MTT assay as previously described by Rahman. When cells reached 90% confluence in a microtiter plate, the DMEM was replaced with fresh medium and cells were incubated with compounds at various concentrations. […] The medium was aspirated, and the formazan product was solubilized with acidified isopropanol (0.4 N HCl). The amount of MTT-formazan is directly proportional to the number of living cells and was determined by measuring the optical density (OD) at 590 nm using a bioassay reader (Bio-Rad). All determinations were performed in triplicate. The cytotoxic and antiproliferative activities of tested compounds were calculated as the percentage of cells killed or the percentage of inhibition of cell proliferation, respectively, using the equation: growth inhibition (%) = (ODcontrol − ODsample/ODcontrol) × 100. […] In addition, the level of cytotoxicity on normal cells was evaluated by determining the selectivity index (SI) of each compound, which is calculated as the ratio of cytotoxicity or reduced cell growth on normal cells to cancer cells (SI = normal cells/cancer cells).
On the technique in general: Tetrazolium assays rely on reduction of a dye to a coloured formazan, in cell work by metabolically active cells.

Data set [2] concerns PC-3. The experiment in a line: Cytotoxicity MTT assay, PC-3 prostate adenocarcinoma. As to conditions: Homo sapiens; PC-3, MTT, 72 h; read-out: Cytotoxic activity CC50. The class given is cell-based, human. Here is the method: as §1
Data set [3] relates to KB. The experiment in a line: Cytotoxicity MTT assay, KB nasopharynx carcinoma. The format is cell-based, human. Conditions: Homo sapiens; KB, MTT, 72 h; read-out: Cytotoxic activity CC50. Here is the method: as §1
Data set [4] concerns HeLa. The data set is described as follows: Cytotoxicity MTT assay, HeLa cervix adenocarcinoma. The class given is cell-based, human. Conditions: Homo sapiens; HeLa, MTT, 72 h; read-out: Cytotoxic activity CC50. As for the experimental part:
as §1

The subject of data set [5] is HeLa. The data set is described as follows: Antiproliferative sulforhodamine B assay, HeLa. The format is cell-based, human. As to conditions: Homo sapiens; HeLa, SRB, 48 h. As for the experimental part: (§2) Three types of cancer cell lines obtained from the American Type Culture Collection (ATCC) were cultured: two oral-laryngeal cancer cell lines, nasopharynx carcinoma (KB, ATCC-CCL-17) and laryngeal carcinoma (Hep-2, ATCC-CCL-23); two cervix-uterine cancer cell lines, cervix adenocarcinoma (HeLa, ATCC-CCL-2) and cervix squamous carcinoma (SiHa, ATCC-HTB-35); and two prostate cancer cell lines, prostate carcinoma (DU-145, ATCC-HTB-81) and prostate adenocarcinoma (PC-3, ATCC-CRL-1435); along with one normal cell line (MDCK, ATCC-CCL-34). The cells were cultured in sterile Costar T75 flasks containing DMEM (Gibco, Hong Kong, China), supplemented with fetal bovine serum (10%, v/v), 100 U/mL penicillin G, and […] streptomycin at 37 °C in an atmosphere of 5% CO2 (95% humidity). At 70%–80% confluence, cells were detached from the cultured flask by treatment with 0.05% trypsin-EDTA (Gibco), and a suspension of 5 × 10^4 cells/mL of viable cells was seeded in a 96-well microtiter plate (Costar, Washington, DC, USA) and incubated.
(§3) The growth inhibition of cancer cells was evaluated by the sulforhodamine B method. When cells reached 70% confluence in a microtiter plate, the medium was replaced with DMEM 5% FBS and samples at various concentrations. After 48 h, the medium was discarded, and cells were fixed by adding 50 μL of 10% trichloroacetic acid (TCA, Sigma-Aldrich Chemical, St. Louis, MO, USA). The cells were then incubated at 4 °C for 30 min; TCA was drained off, and the plates were left to dry. Then, 50 μL of SRB stain (10 mg of 1% acetic acid, Sigma) were added to each well for 30 min. Finally, the plates were washed four times with 1% acetic acid (100 μL). The OD was measured at 540 nm using an ELISA reader (Bio-Rad). Docetaxel was used as a positive control, whereas cells incubated only with 0.05% of DMSO were used as a negative control. All determinations were performed in triplicate.
(§4) The cytotoxic and antiproliferative activities of tested compounds were calculated as the percentage of cells killed or the percentage of inhibition of cell proliferation, respectively, using the equation: growth inhibition (%) = (ODcontrol − ODsample/ODcontrol) × 100. […] In addition, the level of cytotoxicity on normal cells was evaluated by determining the selectivity index (SI) of each compound, which is calculated as the ratio of cytotoxicity or reduced cell growth on normal cells to cancer cells (SI = normal cells/cancer cells). It is generally considered that biological efficacy is not due to general toxicity when SI ≥ 10 [17].
For orientation: In SRB staining, fixed cells bind dye roughly in proportion to their protein.

Another data set relates to tested cell lines. The data set is described as follows: Cytotoxicity and antiproliferative bioassays, whole panel of tested cell lines. The class given is cell-based. Conditions: all tested cell lines. As for the experimental part: as §2, with “At 70%–80% confluence, cells were detached from the cultured flask by treatment with 0.05% trypsin-EDTA (Gibco), and a suspension of 5 × 10^4 cells/mL of viable cells was seeded in a 96-well microtiter plate (Costar, Washington, DC, USA) and incubated.” left out
Cytotoxicity was assessed by the MTT assay as previously described by Rahman. […] The amount of MTT-formazan is directly proportional to the number of living cells and was determined by measuring the optical density (OD) at 590 nm using a bioassay reader (Bio-Rad). […]
The growth inhibition of cancer cells was evaluated by the sulforhodamine B method. […] The OD was measured at 540 nm using an ELISA reader (Bio-Rad). […]

Data set [6] concerns SiHa. The experiment in a line: Antiproliferative sulforhodamine B assay, SiHa. The format is cell-based, human. As to conditions: Homo sapiens; SiHa, SRB, 48 h. Here is the method:
as §2, §3, §4

A short description of data set [7]: Cytotoxicity MTT assay, MDCK normal cell line. The class given is cell-based. As to conditions: dog, MDCK cells (normal cell line), read-out: Cytotoxic activity CC50. Here is the method: as §1
Data set [8] deals with DU-145. The data set is described as follows: Antiproliferative sulforhodamine B assay, DU-145. The class given is cell-based, human. Conditions: for IC50: Homo sapiens, DU-145, SRB, 48 h. Here is the method: as §2, §3, §4
A further data set deals with MDCK. The experiment in a line: Antiproliferative sulforhodamine B assay, MDCK normal cell line. The format is cell-based. As to conditions: Canis lupus familiaris, SRB, 48 h. Here is the method: as §2, §3, §4
The subject of data set [9] is PC-3. The data set is described as follows: Antiproliferative sulforhodamine B assay, PC-3. The class given is cell-based. Conditions: Homo sapiens; PC-3, SRB, 48 h. Here is the method: as §2, §3, §4
In data set [10] the test system is SiHa. The experiment in a line: Cytotoxicity MTT assay, SiHa cervix squamous carcinoma. The format is cell-based, human. As to conditions: Homo sapiens; SiHa, MTT, 72 h; read-out: Cytotoxic activity CC50. As for the experimental part: as §1
For data set [11], the system named is Hep-2. The experiment in a line: Antiproliferative sulforhodamine B assay, Hep-2. The format is cell-based, human. Conditions: Homo sapiens; Hep-2, SRB, 48 h. Here is the method: as §2, §3, §4
For data set [12], the system named is KB. The experiment in a line: Antiproliferative sulforhodamine B assay, KB. The class given is cell-based, human. Conditions: Homo sapiens; KB, SRB, 48 h. Here is the method: as §2, §3, §4
Data set [13] relates to DU-145. The data set is described as follows: Cytotoxicity MTT assay, DU-145 prostate carcinoma. The format is cell-based, human. Conditions: Homo sapiens; DU-145, MTT, 72 h; read-out: Cytotoxic activity CC50. As for the experimental part:
as §1

Data set [14] can be described thus: Cytotoxicity MTT assay, Hep-2 laryngeal carcinoma. The format is cell-based, human. As to conditions: dog MDCK normal cells versus Hep-2 laryngeal carcinoma cells; CC50 MDCK normal cells / Hep-2; read-out: Selectivity index (SI) of cytotoxic activity. Here is the method:
as §1

The nature of data set [15]: Cytotoxicity MTT assay, PC-3 prostate adenocarcinoma. The format is cell-based, human. As to conditions: human, MDCK normal cells versus PC-3 prostate adenocarcinoma cells; CC50 MDCK normal cells / PC-3; read-out: Selectivity index (SI) of cytotoxic activity. As for the experimental part:
as §1

Another data set deals with Trypanosoma cruzi. Details: method as in PMID 17291734. As to conditions: cited from earlier work.
Data set [16] can be described thus: Cytotoxicity MTT assay, KB nasopharynx carcinoma. The class given is cell-based, human. Conditions: human, MDCK normal cells versus KB nasopharynx carcinoma cells; CC50 MDCK normal cells / KB; read-out: Selectivity index (SI) of cytotoxic activity. Here is the method:
as §1

The subject of the next data set is Leishmania mexicana. Details: method as in PMID 17291734. As to conditions: cited from earlier work.
Data set [17] in a line: Cytotoxicity MTT assay, DU-145 prostate carcinoma. The class given is cell-based, human. Conditions: human, MDCK normal cells versus DU-145 prostate carcinoma cells; CC50 MDCK normal cells / DU-145; read-out: Selectivity index (SI) of cytotoxic activity. As for the experimental part:
as §1

Consider `CC(C)=CCc1c(O)c(C(=O)/C=C/c2ccccc2)cc2c1OC(C)(C)C=C2` [Compound 1, spinochalcone C], for which the cytotoxic concentration (CC50) in the data set with Hep-2 [1], in the data set on PC-3 [2], in the data set with KB [3], in the data set with HeLa [4], in the data set with SiHa [10] and in the data set on DU-145 [13] was more than 100 mg/L each time. For the same molecule, the 50% inhibitory concentration (IC50) with HeLa [5], with SiHa [6], in the data set with DU-145 [8], with MDCK, with PC-3 [9] and in the data set with Hep-2 [11] was more than 100 µM each time. Besides, in the data set on KB [12], the concentration for half-maximal inhibition (IC50) (as a rule, the concentration that inhibits the measured activity by half) is more than 100 µM. For the same molecule, the “Active concentration on tested cell lines (no activity to the maximum concentration)” value with tested cell lines is reported as more than 100 µM. The cytotoxic concentration (CC50) (in general, the concentration at which the toxic effect on the cells reaches its halfway point) at 72 h in [7] is more than 100 mg/L.

Take `CC(C)=CCc1c(O)ccc(C(=O)/C=C/c2ccccc2)c1O` [Compound 3, isocordoin]: the selectivity ratio at 72 h in data set [14] is 0.7; in data set [15] it was 0.23; in data set [16] it was 0.5; in [17], 0.6. Besides, the half-maximal cytotoxic concentration (CC50) in the data set with Hep-2 [1] was 6.1 µg/mL and 20 µM; in the data set with PC-3 [2], 18.4 µg/mL and 60.3 µM; with KB [3], 11 µg/mL and 27 µM; in the data set with HeLa [4], more than 100 mg/L; with SiHa [10] it was more than 100 mg/L; in the data set with DU-145 [13] it was 7 µg/mL and 23.1 µM. In the data set on Trypanosoma cruzi, the “Activity against the parasite Trypanosoma cruzi” value is given as “active”. Further, the concentration for half-maximal inhibition (IC50) with HeLa [5] is more than 100 µM; in the data set with SiHa [6], more than 100 µM; in the data set on DU-145 [8], 13.3 µg/mL and 43.8 µM; in the data set on MDCK it was 18.4 µg/mL and 60.8 µM; in the data set with PC-3 [9] it was more than 100 µM; in the data set on Hep-2 [11], more than 100 µM. This molecule gave an IC50 in the data set with KB [12] of more than 100 µM. Moreover, the 50% cytotoxic concentration (CC50) at 72 h in data set [7] was 4.2 µg/mL and 14 µM. Also, the “Activity against the parasite Leishmania mexicana” value in the data set with Leishmania mexicana is reported as “active”. Further, the “Selectivity index (SI) of antiproliferative activity” value in the data set on DU-145 [8] (IC50 MDCK normal cells / DU-145) came to 1.4.
